{
  "source": "patent US20140294737A1",
  "about": "“TREATMENT OF RHINITIS” (AMPIO PHARMACEUTICALS, INC., priority 2011, published 2014)",
  "test_system": "allergic rhinitis in adult humans",
  "experiment": "Phase Ib randomized, double-blinded, placebo-controlled study of danazol intranasal spray; subject-reported Total Nasal Symptom Score (TNSS)",
  "assay_type": "in vivo, human",
  "set-up": "key to Change in rTNSS, Median / Change in AM rTNSS, Median / Change in iTNSS, Median / Change in AM iTNSS, Median: change in TNSS, sum of four 0–3 symptom scores (0–12)",
  "procedure": "A Phase Ib randomized, double-blinded, placebo-controlled, parallel group study was performed to evaluate the efficacy of danazol for treating allergic rhinitis in adult humans. Briefly, the study was performed as follows.\nThe subjects were male or female humans, 18-65 years of age, with a history of allergic rhinitis that had been receiving therapy (continuous or intermittent) for more than 1 year.\nDuring a seven-day wash out period (days 1-7), the subjects received no treatment of any type and recorded their symptoms twice a day (in the morning before bathing, consumption of food or beverages or strenuous activities and 12 hours later) using the following scale: • 0=absent (no sign/symptom present) • 1=mild (sign/symptom clearly present, but minimal awareness; easily tolerated) • 2=moderate (definite awareness of sign/symptom that is bothersome but tolerable) • 3=severe (sign/symptom that is hard to tolerate; causes interference with activities of daily living and/or sleeping)\nThe subjects were randomized into treatment groups (danazol or placebo) after the wash out period (on day 8).\nTreatment was begun on day 8 and continued through day 21 (14 days total). During treatment, the subjects again recorded their symptoms twice daily (as described above and before administration of the test medications in the morning) using the above scale. The subjects administered 0.3 ml of one of the test medications, 0.15 ml per nostril, once daily in the morning, immediately after recording their symptoms. The first administration of test medications was supervised by test site personnel. The test medications were 0.1% (w/v) danazol intranasal spray and placebo spray (nonmedicinal components in identical intranasal spray format). Efficacy of the test medications was assessed as follows:\nThe measures of effectiveness in this study included the subject-reported Total Nasal Symptom Score (TNSS). The TNSS is defined as the sum of the subject-reported symptom scores for the four nasal symptoms: rhinorrhea (runny nose), nasal congestion, nasal itching, and sneezing. Each score is assessed on a severity scale ranging from 0 to 3 as defined above.\nThe subjects were asked to assess both reflective TNSS (i.e., an evaluation of symptom severity over the past 12 hours prior to the recording of the score) and instantaneous TNSS (i.e., an evaluation of the symptom severity over the last 10 minutes).\nThe reflective and instantaneous TNSS are defined as the sum of the subject-reported symptom scores for the four nasal symptoms. Each subject recorded the symptom scores in the subject's diary. For each score, information recorded in the diary included the following: • rhinorrhea (runny nose) • nasal congestion • nasal itching • sneezing The severity scale for each symptom evaluation is given above.\nMean reflective (r) and instantaneous (i) subject-reported total nasal symptom scores (TNSS) were calculated for each subject. The mean TNSS is the average of all AM and PM daily scores (each score is ranked on a scale from 0-12) during the baseline (baseline efficacy value) and the treatment period (double-blind efficacy value).\nThe change in efficacy was calculated as the change in the double-blind value—baseline value as follows: • Change in rTNSS: mean double-blind rTNSS—mean baseline rTNSS • Change in iTNSS: mean double-blind iTNSS—mean baseline iTNSS Student's t-test: mean (SD) difference between treatment groups for the following: • Mean change in (rTNSS/iTNSS) • Mean change in AM (rTNSS/iTNSS) • Mean change in PM (rTNSS/iTNSS) • Mean change in individual symptom scores for each of the four nasal symptoms.\nThe largest improvements were with itchy nose symptoms (Table 8 and FIG. 6).",
  "key": {"[1]": {"conditions": "Wilcoxon rank-sum analysis, median, n=10"}, "[2]": {"conditions": "instantaneous symptom score 0-3, double-blind minus baseline, mean (SD), n=10"}, "[3]": {"conditions": "reflective symptom score 0-3, double-blind minus baseline, mean (SD), n=10"}},
  "data": [
    {"smiles": "C#C[C@]1(O)CC[C@H]2[C@@H]3CCC4=Cc5oncc5C[C@]4(C)[C@H]3CC[C@@]21C", "note": "[Danazol, 17α-pregna-2,4-dien-20-yno[2,3-d]-isoxazol-17β-ol]", "values": [
      {"measurement": "Change in instantaneous symptom iItchy nose, Median", "setting": "[1]", "value": "−1.0"},
      {"measurement": "Change in instantaneous symptom iRunny nose, Median", "setting": "[1]", "value": 0.0},
      {"measurement": "Change in instantaneous symptom iSneezing, Median", "setting": "[1]", "value": "−0.5"},
      {"measurement": "Change in instantaneous symptom iStuffy nose, Median", "setting": "[1]", "value": "−0.5"},
      {"measurement": "Change in reflective symptom rItchy nose, Median", "setting": "[1]", "value": "−1.0"},
      {"measurement": "Change in reflective symptom rRunny nose, Median", "setting": "[1]", "value": "−0.25"},
      {"measurement": "Change in reflective symptom rSneezing, Median", "setting": "[1]", "value": "−1.0"},
      {"measurement": "Change in reflective symptom rStuffy nose, Median", "setting": "[1]", "value": 0.0},
      {"measurement": "efficacy measures showing a larger improvement with danazol than with placebo, instantaneous", "setting": "iTNSS measures, all assessments but sneezing", "value": "6/7"},
      {"measurement": "Mean change in iTNSS", "setting": "instantaneous TNSS, all AM and PM scores, double-blind minus baseline, 0.1% (w/v) intranasal spray once daily, 14 days, mean (SD), n=10", "value": "−1.94 (2.68)"},
      {"measurement": "Mean change in PM iTNSS", "setting": "instantaneous TNSS, evening assessment, double-blind minus baseline, mean (SD), n=10", "value": "−1.42 (2.64)"},
      {"measurement": "Change in PM iTNSS, Median", "setting": "instantaneous TNSS, evening, Wilcoxon rank-sum analysis, median, n=10", "value": "−1.5"},
      {"measurement": "Mean change in AM iTNSS", "setting": "instantaneous TNSS, morning assessment, double-blind minus baseline, mean (SD), n=10", "value": "−1.59 (2.36)"},
      {"measurement": "Change in AM iTNSS, Median", "setting": "instantaneous TNSS, morning, Wilcoxon rank-sum analysis, median, n=10", "value": "−1.5"},
      {"measurement": "Change in iTNSS, Median", "setting": "instantaneous TNSS, Wilcoxon rank-sum analysis, median, n=10", "value": "−1.75"},
      {"measurement": "Mean change in instantaneous symptom iItchy nose", "setting": "[2]", "value": "−0.70 (0.92)"},
      {"measurement": "Mean change in instantaneous symptom iRunny nose", "setting": "[2]", "value": "−0.30 (1.07)"},
      {"measurement": "Mean change in instantaneous symptom iSneezing", "setting": "[2]", "value": "−0.50 (0.53)"},
      {"measurement": "Mean change in instantaneous symptom iStuffy nose", "setting": "[2]", "value": "−0.44 (0.56)"},
      {"measurement": "decrease in instantaneous symptom severity (iTNSS)", "setting": "mean, Student's t-test analysis, vs 1.14 point decrease with placebo", "value": 1.94, "unit": "point"},
      {"measurement": "decrease in reflective symptom severity (rTNSS)", "setting": "mean, Student's t-test analysis, vs 1.16 point decrease with placebo", "value": 2.11, "unit": "point"},
      {"measurement": "decrease in instantaneous symptom severity (iTNSS)", "setting": "median, Wilcoxon rank-sum analysis, vs 0.75 point decrease with placebo", "value": 1.75, "unit": "point"},
      {"measurement": "decrease in reflective symptom severity during the PM assessment (rTNSS)", "setting": "median, Wilcoxon rank-sum analysis, vs 1.25 point decrease with placebo", "value": 3.25, "unit": "point"},
      {"measurement": "efficacy measures showing a larger improvement with danazol than placebo, reflective", "setting": "rTNSS measures, all assessments but runny nose symptom", "value": "6/7"},
      {"measurement": "Mean change in rTNSS", "setting": "reflective TNSS, all AM and PM scores, double-blind minus baseline, 0.1% (w/v) intranasal spray 0.3 ml once daily, 14 days, mean (SD), n=10", "value": "−2.11 (2.66)"},
      {"measurement": "Mean change in PM rTNSS", "setting": "reflective TNSS, evening assessment, double-blind minus baseline, 0.1% (w/v) intranasal spray once daily, 14 days, mean (SD), n=10", "value": "−2.39 (2.68)"},
      {"measurement": "Mean change in PM rTNSS", "setting": "reflective TNSS, evening assessment, double-blind minus baseline, 0.1% (w/v) intranasal spray once daily, 14 days, mean (SD), n=10, listed as danazol", "value": "−2.39"},
      {"measurement": "Change in PM rTNSS, Median", "setting": "reflective TNSS, evening, Wilcoxon rank-sum analysis, median, n=10", "value": "−3.25"},
      {"measurement": "Mean change in AM rTNSS", "setting": "reflective TNSS, morning assessment, double-blind minus baseline, 0.1% (w/v) intranasal spray once daily, 14 days, mean (SD), n=10", "value": "−1.62 (2.40)"},
      {"measurement": "Change in AM rTNSS, Median", "setting": "reflective TNSS, morning, Wilcoxon rank-sum analysis, median, n=10", "value": "−2.0"},
      {"measurement": "Change in rTNSS, Median", "setting": "reflective TNSS, Wilcoxon rank-sum analysis, median, n=10", "value": "−2.25"},
      {"measurement": "Mean change in reflective symptom rItchy nose", "setting": "[3]", "value": "−0.85 (1.02)"},
      {"measurement": "Mean change in reflective symptom rRunny nose", "setting": "[3]", "value": "−0.30 (0.66)"},
      {"measurement": "Mean change in reflective symptom rSneezing", "setting": "[3]", "value": "−0.47 (0.71)"},
      {"measurement": "Mean change in reflective symptom rStuffy nose", "setting": "[3]", "value": "−0.48 (0.69)"}
    ]}
  ]
}
